Structures are written as SMILES.

This is an account of results in patent publication US7462345B2, “Radionuclide labeling of vitamin B12 and coenzymes thereof” (Mayo Foundation for Medical Education and Research, priority 1995, dated 2008).

In data set [1] the test system is Transcobalamins (TC). Kind of data set: modified Unsaturated vitamin B12 Binding Capacity (UBBC) assay. Set-up: species or system human. Conditions: for averaged percent binding to the transcobalamin proteins: average of five patients; for UBBC supernatant counts: NSB = counts <100. The method, then:
(§1) Under dim light, 1000 μg of the non-labeled methyl-, adenosyl-, and cyanocobalamin-b-(4-aminobutyl)amide-DTPA, as well as 1000 μg of cyanocobalamin and DTPA (Sigma, St. Louis, Mo. 63178), were separately dissolved in 10 ml of normal saline at room temperature. Each of the five 1000 μg/10 ml samples were stored in sealed, aluminum-Tapped 10 ml vials to prevent exposure to light. No buffers were added to the solutions. The pH of the solutions, measured by a Beckman 40 pH meter (Beckman Instruments, Fullerton, Calif.): Cyanocobalamin=5.75, DTPA=3.78; cyano, methyl and adenosylcobalamin-DTPA analogues were 5.75, 6.10, and 6.19, respectively. To assess in vitro binding to Intrinsic Factor (IF) and Transcobalamins (TC), the intrinsic factor blocking antibody (IFBA) and Unsaturated vitamin B12 Binding Capacity (UBBC) assays were performed with serum randomly obtained from five patients being evaluated for pernicious anemia at the Mayo Clinic. The IFBA and UBBC assays were first performed for clinical purposes as previously described by V. F. Fairbanks et al., Mayo Clin. Proc., 58, 203 (1983); Intrinsic Factor Blocking Antibody [^57Co] Radioassay-Package insert, Diagnostic Products Corp.; D. Grossowicz et al., Proc. Exp. Biol. 109, 604 (1962) and C. Gottlieb et al., Blood 25, 6 (1965). Next, the serum from the same five patients underwent modified IFBA and UBBC assays. Specifically, 1 μl of the five previously described solutions were separately incubated with purified IF or serum, to potentially saturate all IF and TC binding sites. After incubation for 20 minutes at room temperature and for another 20 minutes at 4° C., 500 μl of the stock (1000 μg/l) Cobalt-57-cyanocobalamin (Mallinckrodt Medical. Inc., St. Louis, Mo. 63134) solution was added and the usual IFBA and UBBC protocols were then followed. All supernatant activity was counted for four minutes on a gamma counter (Micromedix 10/20, Huntsville, Ala. 35805).

The test system of data set [2] is Intrinsic Factor (IF). Kind of data set: modified intrinsic factor blocking antibody (IFBA) assay. It counts as binding. Conditions: for averaged percent binding to IF: average of five patients, estimated from counts vs Clinical run. Here is the method:
as §1

A short description of data set [3]: pH of 1000 μg/10 ml normal saline solutions. The format is physicochemical. Conditions: 1000 μg in 10 ml normal saline, no buffers, room temperature. The method, then: Under dim light, 1000 μg of the non-labeled methyl-, adenosyl-, and cyanocobalamin-b-(4-aminobutyl)amide-DTPA, as well as 1000 μg of cyanocobalamin and DTPA (Sigma, St. Louis, Mo. 63178), were separately dissolved in 10 ml of normal saline at room temperature. Each of the five 1000 μg/10 ml samples were stored in sealed, aluminum-Tapped 10 ml vials to prevent exposure to light. No buffers were added to the solutions. The pH of the solutions, measured by a Beckman 40 pH meter (Beckman Instruments, Fullerton, Calif.): Cyanocobalamin=5.75, DTPA=3.78; cyano, methyl and adenosylcobalamin-DTPA analogues were 5.75, 6.10, and 6.19, respectively.

Setting [4] is: serum PT 1, preincubated with 1 μl of 1000 μg/10 ml solution, then Co-57-cyanocobalamin, Clinical Run 741.
The mark [5] stands for this setting: PT 1, negative <1.11, positive (binding to IF) >1.43, indeterminate 1.11-1.43.
Setting [6] is: PT 2, negative <1.11, positive >1.43.
Setting [7] is: PT 3, negative <1.11, positive >1.43.
The mark [8] stands for this setting: PT 4, negative <1.11, positive >1.43.
Setting [9] is: PT 5, negative <1.11, positive >1.43.

With `CC1=C2N=C(C=C3N=C(C(C)=C4[N-]C(C(CC(N)=O)C4(C)CCC(=O)NCC(C)OP(=O)([O-])OC4C(CO)OC(n5cnc6cc(C)c(C)cc65)C4O)C4(C)N=C1C(CCC(=O)NCCCCNC(=O)CN(CCN(CCN(CC(=O)O)CC(=O)O)CC(=O)O)CC(=O)O)C4(C)CC(N)=O)C(CCC(N)=O)C3(C)C)C(CCC(N)=O)C2(C)CC(N)=O.[CH2-]C1OC(n2cnc3c(N)ncnc32)C(O)C1O.[Co+3]` (stereo not drawn) [ADB12DTPA, adenosylcobalamin-b-(4-aminobutyl)-amide-DTPA], the “averaged percent binding to the transcobalamin proteins” value in data set [1] turned out to be 90.4%. Further, the UBBC supernatant counts is reported as 54.6 counts in data set [1] (setting [4]); 62.6 counts in data set [1] (serum PT 2, Clinical Run 632); 590.3 counts in data set [1] (serum PT 3, Clinical Run 2097); 126.9 counts in data set [1] (serum PT 4, Clinical Run 1378); 163.9 counts in data set [1] (serum PT 5, Clinical Run 1682). Further, the IFBA supernatant counts is on record as 6758.5 counts in data set [2] (PT 1, Clinical Run 11942.5); 6841.5 counts in data set [2] (PT 2, Clinical Run 11656); 6828.5 counts in data set [2] (PT 3, Clinical Run 11780); 7046.5 counts in data set [2] (PT 4, Clinical Run 11617); 7096.5 counts in data set [2] (PT 5, Clinical Run 11653.5). Further, the “IFBA value (in parentheses)” value in data set [2] (setting [5]) is on record as “(2.30)”; in data set [2] (setting [6]), “(1.74)”; in data set [2] (setting [7]) it was “(1.74)”; in data set [2] (setting [8]) it was “(1.64)”; in data set [2] (setting [9]), “(1.72)”. Further, in data set [2], the “averaged percent binding to IF” value is 41.0%. In data set [3], the “pH of the solution” value is reported as 6.19.

In the case of `CC1=C2N=C(C=C3N=C(C(C)=C4[N-]C(C(CC(N)=O)C4(C)CCC(=O)NCC(C)OP(=O)([O-])OC4C(CO)OC(n5cnc6cc(C)c(C)cc65)C4O)C4(C)N=C1C(CCC(=O)NCCCCNC(=O)CN(CCN(CCN(CC(=O)O)CC(=O)O)CC(=O)O)CC(=O)O)C4(C)CC(N)=O)C(CCC(N)=O)C3(C)C)C(CCC(N)=O)C2(C)CC(N)=O.[C-]#N.[Co+3]` (stereo not drawn) [CNB12DTPA, cyanocobalamin-b-(4-aminobutyl)-amide-DTPA], in data set [1], the “averaged percent binding to the transcobalamin proteins” value came out at 66.4%. The UBBC supernatant counts worked out at 222.6 counts in data set [1] (setting [4]); 216.9 counts in data set [1] (serum PT 2, Clinical Run 632); 713.3 counts in data set [1] (serum PT 3, Clinical Run 2097); 433.2 counts in data set [1] (serum PT 4, Clinical Run 1378); 643.2 counts in data set [1] (serum PT 5, Clinical Run 1682). The IFBA supernatant counts in data set [2] (PT 1, Clinical Run 11942.5) was found to be 5151 counts; in data set [2] (PT 2, Clinical Run 11656) it was 5133.5 counts; in data set [2] (PT 3, Clinical Run 11780) it was 5338.5 counts; in data set [2] (PT 4, Clinical Run 11617), 6002.5 counts; in data set [2] (PT 5, Clinical Run 11653.5) it was 5973.5 counts. Also, the “IFBA value (in parentheses)” value in data set [2] (setting [5]) was “(2.30)”; in data set [2] (setting [6]), “(2.31)”; in data set [2] (setting [7]), “(2.22)”; in data set [2] (setting [8]), “(1.98)”; in data set [2] (setting [9]), “(1.99)”. Besides, the “averaged percent binding to IF” value in data set [2] is on record as 52.9%. Besides, in data set [3], the “pH of the solution” value is on record as 5.75.

Consider `CC1=C2N=C(C=C3N=C(C(C)=C4[N-]C(C(CC(N)=O)C4(C)CCC(=O)NCC(C)OP(=O)([O-])OC4C(CO)OC(n5cnc6cc(C)c(C)cc65)C4O)C4(C)N=C1C(CCC(=O)NCCCCNC(=O)CN(CCN(CCN(CC(=O)O)CC(=O)O)CC(=O)O)CC(=O)O)C4(C)CC(N)=O)C(CCC(N)=O)C3(C)C)C(CCC(N)=O)C2(C)CC(N)=O.[CH3-].[Co+3]` (stereo not drawn) [MEB12DTPA, methylcobalamin-b-(4-aminobutyl)-amide-DTPA], for which, in data set [1], the “averaged percent binding to the transcobalamin proteins” value was found to be 94.0%. Besides, the UBBC supernatant counts in data set [1] (setting [4]) is reported as 17.1 counts; in data set [1] (serum PT 2, Clinical Run 632), 26.8 counts; in data set [1] (serum PT 3, Clinical Run 2097), 278.9 counts; in data set [1] (serum PT 4, Clinical Run 1378) it was 60.9 counts; in data set [1] (serum PT 5, Clinical Run 1682), 91.1 counts. Further, the IFBA supernatant counts in data set [2] (PT 1, Clinical Run 11942.5) is 4279 counts; in data set [2] (PT 2, Clinical Run 11656), 4082 counts; in data set [2] (PT 3, Clinical Run 11780) it was 4456.5 counts; in data set [2] (PT 4, Clinical Run 11617) it was 4414 counts; in data set [2] (PT 5, Clinical Run 11653.5) it was 4381.5 counts. The “IFBA value (in parentheses)” value in data set [2] (setting [5]) is listed as “(2.77)”; in data set [2] (setting [6]), “(2.92)”; in data set [2] (setting [7]) it was “(2.66)”; in data set [2] (setting [8]), “(2.69)”; in data set [2] (setting [9]), “(2.77)”. Further, in data set [2], the “averaged percent binding to IF” value is 63.2%. For the same compound, the “pH of the solution” value in data set [3] is listed as 6.10.
